Assay results from patent US20100129432A1, “MICROORGANISM-KILLING COMBINATION” (TAIPEI MEDICAL UNIVERSITY, priority 2008, published 2010).

Assays:
[1] = tested on: Staphylococcus aureus (BCRC 10780); assay: Rose Bengal, Methylene Blue and Chlorin e6 mediated PDI with or without chitosan, survival fraction; assay type: cell-based
Candida albicans = assay: Toluidine blue or Methylene Blue mediated PDI with or without 0.6% chitosan, survival fraction; details: for PDI effect (survival fraction): 0.5 mM photosensitizer, 630±5 nm LED 50 J/cm^2, without chitosan; for survival fraction of Candida albicans: 0.6% (w/v) chitosan added after the PDI, 50 J/cm^2

`CN(C)c1ccc2nc3ccc(=[N+](C)C)cc-3sc2c1` [MB, methylene blue] was tested, and the “PDI effect (survival fraction)” value ([1]; 2 μM MB, 0 J/cm^2, without chitosan) was “ineffective”, the “PDI effect (survival fraction)” value ([1]; 2 μM MB, 0.025% (w/v) chitosan) was “significantly enhanced” and the “PDI effect (survival fraction)” value ([1]; 2 μM MB, 0.025% (w/v) chitosan, 10-20 J/cm^2) was “complete eradication”. The “PDI effect (survival fraction)” value ([1]; 2 μM MB, 5 J/cm^2, without chitosan) was “slightly effective”, the “PDI effect (survival fraction)” value ([1]; 2 μM MB, 10-20 J/cm^2, without chitosan) was “apparently more effective than the lower dose” and the “PDI effect (survival fraction)” value (Candida albicans) was “partially effective”. For the same molecule, the “survival fraction of Candida albicans” value (Candida albicans) was “greatly reduced”.
chlorine e6 [Ce6] was tested, and the “PDI effect (survival fraction)” value ([1]; 0.05 μM Ce6, 0.1% (w/v) chitosan, 10 J/cm^2) was “complete eradication” and the “PDI bacterial killing effect” value ([1]; 0.05 μM Ce6 with chitosan, concentration dependent manner (0.01-0.1 μM)) was “significantly enhance”.
With `O=C1OC2(c3cc(I)c(O)c(I)c3Oc3c2cc(I)c(O)c3I)c2c(Cl)c(Cl)c(Cl)c(Cl)c21` [RB, Rose Bengal] the “PDI effect (survival fraction)” value ([1]; 0.025 μM RB, 25 J/cm^2, 0.025% chitosan) was “complete removal of the bacteria” and the “PDI effect (survival fraction)” value ([1]; 0.025 μM RB, 25 J/cm^2, without chitosan) was “not able to result in complete eradication”.
In the case of `Cc1cc2nc3ccc(N(C)C)cc3[s+]c2cc1N.[Cl-]` [TB, toluidine blue], the “PDI effect (survival fraction)” value (Candida albicans) is reported as “partially effective” and the “survival fraction of Candida albicans” value (Candida albicans) is reported as “greatly reduced”.
